Reference: US9586951B2 (FUJIFILM Corporation, priority 2013, dated 2017)

Assays:
[1] = test system: human non-small cell lung cancer cell line NCI-H460; experiment: Cell proliferation inhibition test by sensitivity-enhancing to ionizing radiation (Cell Titer Glo); assay type: cell-based; conditions: concentration in which SER became 2, NCI-H460 cells, ionizing radiation 2 Gy, cultured 120 hour
How it was run: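 Radiosensitisation measured as SER, a ratio of Cell Titer Glo luminescence in irradiated vs unirradiated plates relative to DMSO; SER2, the concentration yielding SER 2, came from sigmoidal regression. Compound (0.1% DMSO) was given 24 h post-seeding, 2 Gy applied 30 min later, then 120 hour culture at 37° C.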

ATM = biological target: T1, ATM (Homo sapiens, UniProt Q13315); experiment: ATM inhibition test (phosphorylation of Chk2 generated by ionizing radiation, AlphaScreen SureFire); assay type: cell-based; conditions: phosphorylated Chk2 in NCI-H460 cells, ionizing radiation 8Gy, 1 hour after test compound treatment; read-out: ATM inhibitory activity
T1 construct: detecting phosphorylation of Chk2 in a human non-small cell lung cancer cell line NCI-H460 (ATCC company); host or cells: NCI-H460 human non-small cell lung cancer cells
T1 sequence (Q13315 whole entry): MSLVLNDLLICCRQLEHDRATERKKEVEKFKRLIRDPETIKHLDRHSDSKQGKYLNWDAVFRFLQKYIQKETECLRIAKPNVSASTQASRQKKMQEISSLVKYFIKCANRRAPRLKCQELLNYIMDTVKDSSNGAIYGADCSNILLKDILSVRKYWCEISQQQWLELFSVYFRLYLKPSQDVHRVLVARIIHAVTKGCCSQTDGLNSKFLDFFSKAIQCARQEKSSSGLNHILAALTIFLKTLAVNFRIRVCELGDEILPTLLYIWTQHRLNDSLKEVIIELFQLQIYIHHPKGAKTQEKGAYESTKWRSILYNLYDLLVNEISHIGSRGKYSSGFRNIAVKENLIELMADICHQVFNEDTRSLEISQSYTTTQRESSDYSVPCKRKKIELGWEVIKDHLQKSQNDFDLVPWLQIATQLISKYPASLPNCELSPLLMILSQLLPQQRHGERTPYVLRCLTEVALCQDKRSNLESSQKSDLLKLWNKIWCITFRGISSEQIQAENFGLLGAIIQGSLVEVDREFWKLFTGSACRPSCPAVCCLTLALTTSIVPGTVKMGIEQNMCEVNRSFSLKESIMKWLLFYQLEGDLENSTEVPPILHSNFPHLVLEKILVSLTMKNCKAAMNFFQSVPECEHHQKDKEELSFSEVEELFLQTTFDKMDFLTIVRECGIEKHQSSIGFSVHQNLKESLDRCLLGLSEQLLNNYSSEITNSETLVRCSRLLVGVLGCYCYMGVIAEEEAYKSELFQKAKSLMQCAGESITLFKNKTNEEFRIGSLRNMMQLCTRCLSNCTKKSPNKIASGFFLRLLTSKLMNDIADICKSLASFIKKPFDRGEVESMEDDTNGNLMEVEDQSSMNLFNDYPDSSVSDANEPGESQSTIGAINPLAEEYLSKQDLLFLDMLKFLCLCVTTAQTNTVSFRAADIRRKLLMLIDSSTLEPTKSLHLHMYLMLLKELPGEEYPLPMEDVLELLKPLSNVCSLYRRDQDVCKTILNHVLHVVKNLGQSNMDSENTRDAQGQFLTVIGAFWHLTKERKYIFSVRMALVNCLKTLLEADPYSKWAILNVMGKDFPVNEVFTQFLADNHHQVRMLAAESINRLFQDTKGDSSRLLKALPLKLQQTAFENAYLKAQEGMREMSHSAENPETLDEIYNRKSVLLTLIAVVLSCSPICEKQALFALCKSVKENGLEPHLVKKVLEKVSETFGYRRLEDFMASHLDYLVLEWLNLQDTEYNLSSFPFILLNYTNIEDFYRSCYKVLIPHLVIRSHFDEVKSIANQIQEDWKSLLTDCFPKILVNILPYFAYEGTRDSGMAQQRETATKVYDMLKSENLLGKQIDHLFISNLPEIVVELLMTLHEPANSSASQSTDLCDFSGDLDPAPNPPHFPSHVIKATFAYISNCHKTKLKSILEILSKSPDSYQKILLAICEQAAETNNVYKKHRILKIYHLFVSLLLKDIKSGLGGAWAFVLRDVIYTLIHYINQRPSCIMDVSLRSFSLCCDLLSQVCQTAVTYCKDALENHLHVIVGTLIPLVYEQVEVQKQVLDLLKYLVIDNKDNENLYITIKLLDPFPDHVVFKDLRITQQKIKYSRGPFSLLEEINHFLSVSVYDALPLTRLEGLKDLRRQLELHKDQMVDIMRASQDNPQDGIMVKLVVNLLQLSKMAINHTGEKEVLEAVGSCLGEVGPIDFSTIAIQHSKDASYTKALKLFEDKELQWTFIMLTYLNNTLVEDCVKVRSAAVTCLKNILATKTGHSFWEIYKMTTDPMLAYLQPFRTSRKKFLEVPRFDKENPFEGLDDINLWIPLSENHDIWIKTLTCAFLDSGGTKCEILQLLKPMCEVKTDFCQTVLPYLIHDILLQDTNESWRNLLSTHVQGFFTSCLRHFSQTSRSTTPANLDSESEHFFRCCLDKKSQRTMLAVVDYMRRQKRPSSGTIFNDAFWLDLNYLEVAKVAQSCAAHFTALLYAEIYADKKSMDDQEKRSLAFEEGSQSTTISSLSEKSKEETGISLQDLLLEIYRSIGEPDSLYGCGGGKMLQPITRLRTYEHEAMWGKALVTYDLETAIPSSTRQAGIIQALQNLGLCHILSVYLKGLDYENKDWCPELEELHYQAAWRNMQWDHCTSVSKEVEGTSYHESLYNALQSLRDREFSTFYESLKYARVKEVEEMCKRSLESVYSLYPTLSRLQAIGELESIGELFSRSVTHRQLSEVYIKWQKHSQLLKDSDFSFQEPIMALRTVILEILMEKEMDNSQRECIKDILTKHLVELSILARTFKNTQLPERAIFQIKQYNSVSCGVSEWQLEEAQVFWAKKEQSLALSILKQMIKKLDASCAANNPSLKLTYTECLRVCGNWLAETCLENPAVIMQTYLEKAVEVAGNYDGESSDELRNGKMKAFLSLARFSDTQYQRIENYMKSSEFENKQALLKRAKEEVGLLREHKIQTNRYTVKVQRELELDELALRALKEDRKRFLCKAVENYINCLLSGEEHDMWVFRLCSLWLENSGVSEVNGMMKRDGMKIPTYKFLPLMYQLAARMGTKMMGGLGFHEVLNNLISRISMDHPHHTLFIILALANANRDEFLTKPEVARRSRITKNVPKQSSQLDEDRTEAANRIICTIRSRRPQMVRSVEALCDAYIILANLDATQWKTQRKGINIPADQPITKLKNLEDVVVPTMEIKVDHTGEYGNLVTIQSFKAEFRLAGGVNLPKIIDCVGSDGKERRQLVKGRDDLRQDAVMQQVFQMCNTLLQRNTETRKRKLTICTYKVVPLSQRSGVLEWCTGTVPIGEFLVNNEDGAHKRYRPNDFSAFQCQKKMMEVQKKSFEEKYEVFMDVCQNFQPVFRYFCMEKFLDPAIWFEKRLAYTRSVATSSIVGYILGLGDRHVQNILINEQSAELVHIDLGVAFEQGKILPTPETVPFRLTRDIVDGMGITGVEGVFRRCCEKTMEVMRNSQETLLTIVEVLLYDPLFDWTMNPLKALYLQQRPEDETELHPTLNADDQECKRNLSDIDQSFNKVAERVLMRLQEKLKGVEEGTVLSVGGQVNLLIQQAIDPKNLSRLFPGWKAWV
How it was run: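 NCI-H460 cells treated with compound for 1 hour, then irradiated with 8Gy and incubated 1 hour at 37° C. Phospho-Chk2 measured by AlphaScreen SureFire. Inhibition ratio calculated relative to untreated irradiated and non-irradiated wells.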

Structure (SMILES)	SER2 (concentration at which the radiation sensitivity-enhancement ratio reaches 2) ([1]; Homo sapiens, NCI-H460, 120 h) [nM]	IC50 (ATM) [nM]	SER2 (concentration at which the radiation sensitivity-enhancement ratio reaches 2) [1] [nM]
Cc1ccc(C(Nc2ccc3c(c2)Sc2cccc(-c4cc(N5CCOCC5)cc(=O)[nH]4)c2S3)C2CCN(C)CC2)nc1 (centres unmarked) [Example 1-35, 6-(7-(((1-methylpiperidin-4-yl)(5-methylpyridin-2-yl)methyl)amino)thianthren-1-yl)-4-morpholinopyridin-2(1H)-one]	< 100	< 100	
CN1CCC(Nc2ccc3c(c2)Sc2cccc(-c4cc(N5CCOCC5)cc(=O)[nH]4)c2S3)CC1 [Example 1-44-5, 6-(7-((1-Methylpiperidin-4-yl)amino)thianthren-1-yl)-4-morpholino pyridin-2(1H)-one]	500 to 2000	< 100	
Cc1cccc(C(Nc2ccc3c(c2)Sc2cccc(-c4cc(N5CCOCC5)cc(=O)[nH]4)c2S3)C2CCN(C)C2)n1 (single isomer, unassigned) [Example 1-22-6, 6-(7-(((6-Methylpyridin-2-yl)(1-methylpyrrolidin-3-yl)methyl)amino)thianthren-1-yl)-4-morpholino pyridin-2 (1H)-one]	< 100	< 100	
COC(C)(C)c1cncc(CNc2ccc3c(c2)Cc2cccc(-c4cc(N5CCOCC5)cc(=O)[nH]4)c2O3)c1 [Example 2-14-12, 6-(7-(((5-(2-Methoxypropan-2-yl)pyridin-3-yl)methyl)amino)-9H-xanthen-4-yl)-4-morpholino pyridin-2 (1H)-one]	100 to 500	< 100	
Cc1ccnc(C(C)Nc2ccc3c(c2)Cc2cccc(-c4cc(N5CCOCC5)cc(=O)[nH]4)c2O3)c1 (centres unmarked) [Example 2-14-19, 6-(7-((1-(4-Methylpyridin-2-yl)ethyl)amino)-9H-xanthen-4-yl)-4-morpholino pyridin-2(1H)-one]	100 to 500	100 to 500	
COc1cc(OC)nc(CNc2ccc3c(c2)Cc2cccc(-c4cc(N5CCOCC5)cc(=O)[nH]4)c2O3)n1 [Example 2-2-51, 6-(7-(((4,6-Dimethoxypyrimidin-2-yl)methyl)amino)-9H-xanthen-4-yl)-4-morpholino pyridin-2 (1H)-one]	500 to 2000	< 100	
COc1ncc(CNc2ccc3c(c2)Cc2cccc(-c4cc(N5CCOCC5)cc(=O)[nH]4)c2O3)cc1F [Example 2-2-18, 6-(7-(((5-Fluoro-6-methoxypyridin-3-yl)methyl)amino)-9H-xanthen-4-yl)-4-morpholino pyridin-2(1H)-one]	500 to 2000	100 to 500	
Cc1cnc(C(C)Nc2ccc3c(c2)Sc2cccc(-c4cc(N5CCOCC5)cc(=O)[nH]4)c2S3)cn1 (centres unmarked) [Example 1-12-64, 6-(7-((1-(5-Methylpyrazin-2-yl)ethyl)amino)thianthren-1-yl)-4-morpholino pyridin-2(1H)-one]	< 100	< 100	
COC(=O)C(Nc1ccc2c(c1)Sc1cccc(-c3cc(N4CCOCC4)cc(=O)[nH]3)c1S2)c1cccc(C)n1 (centres unmarked) [Example 1-12-107, Methyl 2-(6-methylpyridin 2-yl)-2-((6-(4-morpholino-6-oxo-1,6-dihydropyridin-2 yl)thianthren-2-yl)amino) acetate]	100 to 500	< 100	
O=c1cc(N2CCOCC2)cc(-c2cccc3c2Oc2ccc(NCc4ccnc(Cl)c4)cc2C3)[nH]1 [Example 2-2-52, 6-(7-(((2-Chloropyridin-4-yl)methyl)amino)-9H-xanthen-4-yl)-4-morpholino pyridin-2 (1H)-one]	500 to 2000	< 100	
Cc1ccc(C(C)Nc2ccc3c(c2)Sc2cccc(-c4cc(N5CCOCC5)cc(=O)[nH]4)c2S3)nc1 (single isomer, unassigned) [Example 1-12-143-1, 6-(7-((1-(5-methylpyridin-2-yl)ethyl)amino)thianthren-1-yl)-4-morpholinopyridin-2(1H)-one]	< 100	< 100	
O=c1cc(N2CCOCC2)cc(-c2cccc3c2Oc2ccc(NCc4cnc5ccccc5c4)cc2S3)[nH]1 [Example 4-4-15, 4-Morpholino-6-(8-((quinolin-3-ylmethyl)amino)phenoxathiin-4-yl) pyridin-2(1H)-one]	100 to 500	< 100	
CCOc1ccnc(CNc2ccc3c(c2)Cc2cccc(-c4cc(N5CCOCC5)cc(=O)[nH]4)c2O3)c1 [Example 2-13-11, 6-(7-(((4-Ethoxypyridin-2-yl)methyl)amino)-9H-xanthen-4-yl)-4-morpholino pyridin-2(1H)-one]	100 to 500	< 100	
Cc1cccc(C(C)Nc2ccc3c(c2)Cc2cccc(-c4cc(N5CCOCC5)cc(=O)[nH]4)c2O3)n1 (centres unmarked) [Example 2-14-18, 6-(7-((1-(6-Methylpyridin-2-yl)ethyl)amino)-9H-xanthen-4-yl)-4-morpholino pyridin-2(1H)-one]	100 to 500	100 to 500	
O=c1cc(N2CCOCC2)cc(-c2cccc3c2Oc2ccc(NCc4cc(-n5cccc5)ccn4)cc2C3)[nH]1 [Example 2-2-71, 6-(7-(((4-(1H-Pyrrol-1-yl)pyridin-2-yl)methyl)amino)-9H-xanthen-4-yl)-4-morpholino pyridin-2(1H)-one]	100 to 500	< 100	
Cc1ccc(CNc2ccc3c(c2)Sc2cccc(-c4cc(N5CCOCC5)cc(=O)[nH]4)c2O3)cn1 [Example 4-8-23, 6-(8-(((6-Methylpyridin-3-yl)methyl)amino)phenoxathiin-4-yl)-4-morpholino pyridin-2(1H)-one]	100 to 500	< 100	
Cc1ccc(C(Nc2ccc3c(c2)Sc2cccc(-c4cc(N5CCOCC5)cc(=O)[nH]4)c2S3)C2CC(N(C)C)C2)nc1 (single isomer, unassigned) [Example 1-50-8, 6-(7-(((3-(Dimethylamino)cyclobutyl)(5-methylpyridin-2-yl)methyl)amino)thianthren-1-yl)-4-morpholino pyridin-2(1H)-one]	< 100	< 100	
COCc1cc(CNc2ccc3c(c2)Cc2cccc(-c4cc(N5CCOCC5)cc(=O)[nH]4)c2O3)ccn1 [Example 2-21-6, 6-(7-(((2-(Methoxymethyl)pyridin-4-yl)methyl)amino)-9H-xanthen-4-yl)-4-morpholino pyridin-2(1H)-one]	500 to 2000	< 100	
O=c1cc(N2CCOCC2)cc(-c2cccc3c2Sc2ccc(NC4CCCN(Cc5cccnc5)C4)cc2S3)[nH]1 (centres unmarked) [Example 1-24-2, 4-Morpholine-6-(7-((1-(pyridin-3-ylmethyl)piperidin-3-yl)amino)thianthren-1-yl)pyridin-2 (1H)-one]	100 to 500	< 100	
O=c1cc(N2CCOCC2)cc(-c2nccc3c2Oc2ccc(NCc4cc(Cl)ccn4)cc2C3)[nH]1 [Example 2-41-3, 6-(7-(((4-Chloropyridin-2-yl)methyl)amino)-5H-chromeno [2,3-c]pyridin-1-yl)-4-morpholino pyridin-2(1H)-one]	100 to 500	< 100	
COC[C@H](CN1CCOC[C@@H]1C)Nc1ccc2c(c1)Sc1cccc(-c3cc(N4CCOCC4)cc(=O)[nH]3)c1S2 [Example 1-46-5, 6-(7-(((S)-1-Methoxy-3-((S)-3-methylmorpholino)propan-2-yl)amino)thianthren-1-yl)-4-morpholino pyridin-2(1H)-one]	100 to 500	< 100	
CC(Nc1ccc2c(c1)Sc1cccc(-c3cc(N4CCOCC4)cc(=O)[nH]3)c1S2)c1cnccn1 (centres unmarked) [Example 1-12-63, 4-Morpholino-6-(7-((1-(pyrazin-2-yl)ethyl)amino)thianthren-1-yl)pyridin-2 (1H)-one]	100 to 500	< 100	
COc1cc(CNc2ccc3c(c2)Sc2cccc(-c4cc(N5CCOCC5)cc(=O)[nH]4)c2O3)cnc1OC [Example 4-4-12, 6-(8-(((5,6-Dimethoxypyridin-3-yl)methyl)amino)phenoxathiin-4-yl)-4-morpholino pyridin-2(1H)-one]	100 to 500	< 100	
C[C@@H]1CN(CCNc2ccc3c(c2)Sc2cccc(-c4cc(N5CCOCC5)cc(=O)[nH]4)c2S3)C[C@H](C)O1 [Example 1-10-14, 6-(7-((2-((2S,6R)-2,6- Dimethylmorpholino)ethyl)amino)thianthren-1-yl)-4-morpholino pyridin-2(1H)-one]	100 to 500	< 100	
Cc1cccc(C(Nc2ccc3c(c2)Sc2cccc(-c4cc(N5CCOCC5)cc(=O)[nH]4)c2S3)C2CCN(C)C2)n1 (single isomer, unassigned) [Example 1-22-7, 6-(7-(((6-Methylpyridin-2-yl)(1-methylpyrrolidin-3-yl)methyl)amino)thianthren-1-yl)-4-morpholino pyridin-2 (1H)-one]		< 100	< 100
